This series can be described thus: β-cyclodextrin dissolution rate in deionized water by refractive index. It is filed as physicochemical. As to conditions: for β-Cyclodextrin Dissolved (%): 350 mg in 50 mL deionized water; for amount of dissolved cyclodextrin at one minute relative to the 156 μm cyclodextrin: one minute following administration. As to the method:
In this example, the amount of dissolved cyclodextrin provided by several different β-cyclodextrin samples with varying ranges of particle size was determined. Samples of β-cyclodextrin with average particle sizes ranging from 116 μm to 249 μm were obtained from Roquette America of Keokuk, Iowa. In addition, a β-cyclodextrin sample with an average particle size range of about 57 μm was prepared by first dissolving the 249-μm commercially available sample in water and then lyophilizing the solution to form a fine powder. Volume weighted mean particle diameter in microns for each β-cyclodextrin sample was determined using a Horiba particle sizer.
The dissolution rates of these samples were determined as follows. A 350 mg sample of β-cyclodextrin of a given particle size was placed into 50 mL of deionized water, and the refractive index was measured at the time points noted in Table 2. Refractive index measurements were compared to a calibration curve of standards with known concentration, and the concentration of dissolved β-cyclodextrin versus time was determined.

For `OC[C@H]1O[C@@H]2O[C@H]3[C@H](O)[C@@H](O)[C@@H](O[C@H]4[C@H](O)[C@@H](O)[C@@H](O[C@H]5[C@H](O)[C@@H](O)[C@@H](O[C@H]6[C@H](O)[C@@H](O)[C@@H](O[C@H]7[C@H](O)[C@@H](O)[C@@H](O[C@H]8[C@H](O)[C@@H](O)[C@@H](O[C@H]1[C@H](O)[C@H]2O)O[C@@H]8CO)O[C@@H]7CO)O[C@@H]6CO)O[C@@H]5CO)O[C@@H]4CO)O[C@@H]3CO` [249 μm, β-cyclodextrin], the “cyclodextrin dissolved after one minute” value (one minute, value taken from Table 3) is reported as 20 wt %. The “β-Cyclodextrin Dissolved (%)” value is 0% (time 0 min); 20% (time 1 min); 26% (time 2 min); 42% (time 3 min); 54% (time 4 min); 67% (time 5 min).
Regarding `OC[C@H]1O[C@@H]2O[C@H]3[C@H](O)[C@@H](O)[C@@H](O[C@H]4[C@H](O)[C@@H](O)[C@@H](O[C@H]5[C@H](O)[C@@H](O)[C@@H](O[C@H]6[C@H](O)[C@@H](O)[C@@H](O[C@H]7[C@H](O)[C@@H](O)[C@@H](O[C@H]8[C@H](O)[C@@H](O)[C@@H](O[C@H]1[C@H](O)[C@H]2O)O[C@@H]8CO)O[C@@H]7CO)O[C@@H]6CO)O[C@@H]5CO)O[C@@H]4CO)O[C@@H]3CO` [156 μm, β-cyclodextrin], the “amount of dissolved cyclodextrin provided by crystalline cyclodextrin” value (one minute after administration) was “about 41%”. Also, the “β-Cyclodextrin Dissolved (%)” value (time 0 min) was found to be 0%; the “β-Cyclodextrin Dissolved (%)” value (time 1 min) is recorded as 41%; the “β-Cyclodextrin Dissolved (%)” value (time 2 min) is 81%; the “β-Cyclodextrin Dissolved (%)” value (time 3 min) was determined as 96%; the “β-Cyclodextrin Dissolved (%)” value (time 4 min) stood at 92%; the “β-Cyclodextrin Dissolved (%)” value (time 5 min) is recorded as 95%.
In the case of `OC[C@H]1O[C@@H]2O[C@H]3[C@H](O)[C@@H](O)[C@@H](O[C@H]4[C@H](O)[C@@H](O)[C@@H](O[C@H]5[C@H](O)[C@@H](O)[C@@H](O[C@H]6[C@H](O)[C@@H](O)[C@@H](O[C@H]7[C@H](O)[C@@H](O)[C@@H](O[C@H]8[C@H](O)[C@@H](O)[C@@H](O[C@H]1[C@H](O)[C@H]2O)O[C@@H]8CO)O[C@@H]7CO)O[C@@H]6CO)O[C@@H]5CO)O[C@@H]4CO)O[C@@H]3CO` [116 μm, β-cyclodextrin], the “amount of dissolved cyclodextrin at one minute relative to the 156 μm cyclodextrin” value is “about 1.4 fold”. Also, under “time 0 min”, the “β-Cyclodextrin Dissolved (%)” value is recorded as 0%. Moreover, for the setting “time 1 min”, the “β-Cyclodextrin Dissolved (%)” value is given as 58%. The “β-Cyclodextrin Dissolved (%)” value (time 2 min) is on record as 76%. Moreover, the “β-Cyclodextrin Dissolved (%)” value (time 3 min) turned out to be 84%. For the same compound, the “β-Cyclodextrin Dissolved (%)” value (time 4 min) is 88%.
Turning to `OC[C@H]1O[C@@H]2O[C@H]3[C@H](O)[C@@H](O)[C@@H](O[C@H]4[C@H](O)[C@@H](O)[C@@H](O[C@H]5[C@H](O)[C@@H](O)[C@@H](O[C@H]6[C@H](O)[C@@H](O)[C@@H](O[C@H]7[C@H](O)[C@@H](O)[C@@H](O[C@H]8[C@H](O)[C@@H](O)[C@@H](O[C@H]1[C@H](O)[C@H]2O)O[C@@H]8CO)O[C@@H]7CO)O[C@@H]6CO)O[C@@H]5CO)O[C@@H]4CO)O[C@@H]3CO` [57 μm, β-cyclodextrin], the “amount of dissolved cyclodextrin at one minute relative to the 156 μm cyclodextrin” value is given as “about 2.4 fold”. Also, the “β-Cyclodextrin Dissolved (%)” value (time 0 min) came to 0%. The “β-Cyclodextrin Dissolved (%)” value (time 1 min) is 102%. The “β-Cyclodextrin Dissolved (%)” value (time 2 min) turned out to be 102%. Moreover, the “β-Cyclodextrin Dissolved (%)” value (time 3 min) was 97%. The “β-Cyclodextrin Dissolved (%)” value (time 4 min) amounted to 99%. Besides, the “β-Cyclodextrin Dissolved (%)” value (time 5 min) came out at 100%.
In the case of `OC[C@H]1O[C@@H]2O[C@H]3[C@H](O)[C@@H](O)[C@@H](O[C@H]4[C@H](O)[C@@H](O)[C@@H](O[C@H]5[C@H](O)[C@@H](O)[C@@H](O[C@H]6[C@H](O)[C@@H](O)[C@@H](O[C@H]7[C@H](O)[C@@H](O)[C@@H](O[C@H]8[C@H](O)[C@@H](O)[C@@H](O[C@H]1[C@H](O)[C@H]2O)O[C@@H]8CO)O[C@@H]7CO)O[C@@H]6CO)O[C@@H]5CO)O[C@@H]4CO)O[C@@H]3CO` [183 μm, β-cyclodextrin], the “β-Cyclodextrin Dissolved (%)” value by setting is: (time 0 min) 0%; (time 1 min) 45%; (time 2 min) 52%; (time 3 min) 64%; (time 4 min) 64%; (time 5 min) 71%.

These data come from patent US20080075784A1, “Taste Making Formulation Comprising The Drug In A Dissolution-Retarded Form And/Or Cyclodextrin In A Dissolution-Enhanced Form” (Pfizer Inc., priority 2004, published 2008).
